Measurements taken from patent US5573772A, “Methods for protecting tissues and organs from ischemic damage” (priority 1994, dated 1996).

How the values were obtained:
[1] = tested on: rabbit heart; experiment: Infarct size in isolated rabbit hearts, A3-receptor mediation of preconditioning, Example 3; conditions: BW A1433 200 nM + PC
Experimental: New Zealand white rabbits of either sex, between 1.4-2.4 kg, were anesthetized with intravenous sodium pentobarbital (30 mg/kg). The neck was opened and a tracheotomy was performed. The rabbits were ventilated with 100% oxygen via a positive pressure respirator (MD industries, Mobile, Ala.). Ventilation rate was 30-35 breaths per minute, and tidal volume was approximately 15 ml. A left thoracotomy was performed in the fourth intercostal space and pericardium was opened to expose the heart. A 2-0 silk suture with an RB taper needle was passed around a branch of the left coronary artery, and the end of the silk were threaded through a small vinyl tube to form a snare. The heads were quickly excised and mounted on a Langendorff apparatus and perfused at constant pressure with Krebs buffer containing (in mM) 118.5 NaCl, 4.7 KCl, 1.2 MgSO4, 1.2 K2 PO4, 24.3 NaHCO3, 2.5 CaCl2 and 10 glucose. […] The temperature of the perfusate was maintained at 37° C. The perfusion pressure was kept at 75 mm Hg. Pacing electrodes were placed on the right atrium and all hearts were paced at 200 beats/minute with pulses of 5 volts and 4 msec duration to keep the heart rate constant. A fluid-filled latex balloon connected to a transducer via PE240 tubing was inserted into the left ventricle. Balloon volume was adjusted to set the left ventricular diastolic pressure at 10 mm Hg at the beginning of the experiment. Total coronary artery flow was measured by timed collection of buffer from the chamber into a graduated cylinder. Regional ischemia was effected by pulling the snare tight and clamping the tube with a hemostat. Global ischemia was performed by clamping the inflow tubing of the Langendorff apparatus. Reperfusion was achieved by releasing the restriction. All hearts were allowed to equilibrate for 20 minutes before the experiments were started. Heart rate (HR), coronary flow (CF) and left ventricular developed pressure (LVDP) were recorded at the point just before and at the end of each treatment with the pacing momentarily turned off. […] The hearts were removed from the Langendorff apparatus, weighed and then frozen. The hearts were cut into 2 mm transverse slices. The slices were thawed and incubated in 1% triphenyl tetrazolium chloride (TTC) in pH 7.4 buffer for 20 minutes at 37° C. TTC reacts with NADH and dehydrogenase enzymes and stains all tissue still having them to a deep red color. […] After staining, the area of infarcted tissue (TTC negative tissue) and the risk zone (area lacking fluorescence under ultraviolet light) in each slice were traced. The area of infarct and risk zone were determined by planimetry of the tracing. The volume of infarcted myocardium and myocardium at risk was then calculated by multiplying the planimetered areas by the slice thickness. The methods utilized in this example are identical to those described in Example 1. All hearts received 30 minutes of regional ischemia as described in Example 1. The control group (n=8) hearts received only 30 minutes of ischemia. Preconditioned (PC) hearts (n=10) received 5 minutes of global ischemia and 10 minutes of reperfusion prior to the regional ischemia. Adenosine (ADO) treated hearts (n=6) received 10 μM adenosine for 5 minutes prior to regional ischemia. APNEA treated hearts (n=6) received 65 μM APNEA for 5 minutes prior to regional ischemia. In groups receiving the nonselective adenosine blocker, 8-SPT, the blocker was included in the perfusate for 15 minutes at 100 μM starting 5 minutes before the exposure of ADO (ADO-SPT group, n=6), or APNEA (APNEA-SPT group, n=6 ) or 5 minutes before and after 5 minutes of preconditioning ischemia (PC-SPT group, n=5). […] For the PC-BW group (n=5), the A3-receptor antagonist, BW A1433, [Linden J, et al., Molecular Pharmacology 44:524-532 (1993)], was administered at a dose of 200 nM in the perfusate for 5 minutes before and 5 minutes after PC ischemia.

[2] = tested on: heart; conditions: intercoronarily infused before an ischemic insult; cited from earlier work
[3] = tested on: human A3 adenosine receptor; experiment: A3 adenosine receptor binding assay, [125I]-ABA displacement on CHO cell membranes, Example 5
Experimental: Chinese hamster ovary (CHO) cells, obtained from ATCC, expressing the cloned human A3 adenosine receptor [for example, 5 L cells or a mutagenized A3 adenosine receptor (e.g., A3K2)] were grown under standard cell culture conditions and harvested by mechanical agitation in cell culture medium. All further procedures were carried out at 4° C. The cells were disrupted using a Polytron and the resulting cell membranes collected by centrifugation at 50,000 g for 20 minutes. The pellet was suspended in 10 mM Tris-HCl buffer, pH 7.4, (10^6 cells/mL) using the Polytron and centrifuged at 50,000 g for 20 minutes. […]
For the binding assay, 50 μg of membrane protein were incubated with 0.4 nM [^125 l]-aminobenzyladenosine (ABA, custom synthesized by DuPont:NEN; specific activity=2200 Ci/mmol) in 50 mM Tris-HCl buffer, pH 7.4, containing 5 mM MgCl2 and 1 unit/mL adenosine deaminase in a total volume of 100 μL for 2 hours at room temperature. Membranes containing bound radioactivity were collected on Whatman GF/B filters using a Brandel Cell Harvester and washed 3 times with ice-cold 50 mM Tris-HCl buffer, pH 7.4. Radioactivity was quantified using a Beckman gamma counter. […] The specific binding was then calculated by subtracting this non-specific binding value from the total binding.

[4] = tested on: intact rabbit; experiment: Bradycardia and mean arterial pressure in the anesthetized rabbit, Example 2; conditions: I-APNEA 0.25 mg/kg
[5] = tested on: A3 adenosine receptor (R226); conditions: cited from earlier work
[6] = tested on: intact, blood perfused rabbit heart; experiment: Infarct size in the intact anesthetized rabbit, 30 min ischemia and reperfusion, Example 2; conditions: I-APNEA 0.25 mg/kg iv; control 52±4.3%, PC 9±4.1%
Experimental: In this study, the effect of the adenosine receptor agonist, I-APNEA, on infarct size in the anesthetized rabbit was compared to the protection observed with ischemic preconditioning (PC).
New Zealand White rabbits (1.5-2.5 kg) were anaesthetized with pentobarbital sodium (40 mg/kg) administered via a catheter in a marginal ear vein. The animals were intubated with a pediatric cuffed endotracheal tube and ventilated with room air using a positive pressure respirator (Harvard Apparatus, Natick, Mass.). The heart was exposed in situ via an incision between the left 4th and 5th ribs, and a branch of the left coronary artery was isolated, using a 3-0 silk suture on RB-taper needle, for later ligation to induce 30 minutes of ischemia followed by 180 minutes of reperfusion. A catheter inserted into a femoral vein was used for administration of fluids and drugs. Infarct size was measured using the method described in the section entitled "Measurement of Infarct Size and Risk Area" in Example 1.
All animals received 30 minutes of regional ischemia, induced by tightening the suture placed around the coronary artery. Following the 30 minutes of ischemia, the suture was loosened, and reperfusion was allowed for the ensuing 180 minutes. Control animals received only the 30 minutes of ischemia and 180 minutes of reperfusion (n=9). Ischemic preconditioning (PC) was induced by 5 minutes of occlusion of the coronary artery followed by 10 minutes of reperfusion before the 30 minutes of occlusion (n=7). In a separate group of rabbits, I-APNEA was delivered intravenously as a slow bolus injection (0.25 mg/kg), beginning 15 minutes prior to the 30 minutes occlusion (n=8). In two additional groups of rabbits, the effects of the A1-selective adenosine receptor blocker, DPCPX, were tested against the effects of PC (n=6) and I-APNEA (n=8). […] At the end of 120 minutes of reperfusion, all animals were killed by an overdose of pentobarbital, and risk area and infarct size were measured.

CCCn1c(=O)c2[nH]c(-c3ccc(/C=C/C(=O)O)cc3)nc2n(CCC)c1=O [BW A1433]
Infarct size (of the risk area) [1]: 26.2±3.2%

OC[C@H]1O[C@@H](n2cnc3c(NC4CCCC4)nc(Cl)nc32)[C@H](O)[C@@H]1O [CCPA, 2-chloro-N^6-cyclopentyladenosine]
Ischemic preconditioning effects [2]: beneficial ischemic preconditioning effects

Nc1ccc(CNc2ncnc3c2ncn3[C@@H]2O[C@H](CO)[C@@H](O)[C@H]2O)cc1I [I-ABA, N^6-(4-amino-3-iodobenzyl)adenosine]
IC50 ([3]; A3K2 line cell membranes, 0.4 nM [125I]-ABA, read-out: IC50, displacement of [125I]ABA specific binding): 2 nM

Nc1ccc(CCNc2ncnc3c2ncn3[C@@H]2O[C@H](CO)[C@@H](O)[C@H]2O)cc1I [I-APNEA, N^6-2-(4-amino-3-iodophenyl)ethyladenosine]
Mean arterial pressure [4]: fall in mean arterial pressure | Binding to R226 [5]: bind | Infarct size [6]: 17±3.8%

CCNC(=O)[C@H]1O[C@@H](n2cnc3c(N)ncnc32)[C@H](O)[C@@H]1O [NECA, 5'-N-ethylcarboxamidoadenosine]
Binding to R226 [5]: bind

C[C@H](Cc1ccccc1)Nc1ncnc2c1ncn2[C@@H]1O[C@H](CO)[C@@H](O)[C@H]1O [R-PIA, (R)-N-(2-phenyl-1-methylethyl)adenosine]
Ischemic preconditioning effects [2]: beneficial ischemic preconditioning effects

CCCn1c(=O)c2[nH]c(-c3ccc(OCC(=O)NCCN)cc3)nc2n(CCC)c1=O [XAC]
Binding to R226 [5]: not to bind

Nc1ccc(CNc2ncnc3c2ncn3[C@@H]2O[C@H](CO)[C@@H](O)[C@H]2O)cc1[125I] [[^125 l]ABA, [^125 l]-aminobenzyladenosine]
Binding to human A3 receptors, affinity ([3]; radiolabel, A3K2 cells): high affinity
